Test results taken from patent publication US9493448B2, “Cycloalkane derivatives” (Daiichi Sankyo Company, Limited, priority 2012, dated 2016).

What was measured:
[1] = molecular target: hNav 1.7 (Homo sapiens (Human), UniProt Q15858); assay: Electrophysiological evaluation, automated patch clamp IonWorks Quattro (Population Patch Clamp mode); format: cell-based; conditions: HEK293A cells stably expressing hNav 1.7/β1/β2; response to second depolarization pulse, pre-pulse potential set to V1/2; read-out: hNav1.7 IC50
[2] = test system: mice and rats affected by thermal hyperalgesia; assay: Thermal hyperalgesia assay; format: in vivo; conditions: oral administration, constant dose, against the vehicle treatment group; latency to escape behaviors after thermal stimulation of hind paw;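 also: measurement times set by the study director and not disclosed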

Chain of hNav 1.7 (Q15858 whole entry): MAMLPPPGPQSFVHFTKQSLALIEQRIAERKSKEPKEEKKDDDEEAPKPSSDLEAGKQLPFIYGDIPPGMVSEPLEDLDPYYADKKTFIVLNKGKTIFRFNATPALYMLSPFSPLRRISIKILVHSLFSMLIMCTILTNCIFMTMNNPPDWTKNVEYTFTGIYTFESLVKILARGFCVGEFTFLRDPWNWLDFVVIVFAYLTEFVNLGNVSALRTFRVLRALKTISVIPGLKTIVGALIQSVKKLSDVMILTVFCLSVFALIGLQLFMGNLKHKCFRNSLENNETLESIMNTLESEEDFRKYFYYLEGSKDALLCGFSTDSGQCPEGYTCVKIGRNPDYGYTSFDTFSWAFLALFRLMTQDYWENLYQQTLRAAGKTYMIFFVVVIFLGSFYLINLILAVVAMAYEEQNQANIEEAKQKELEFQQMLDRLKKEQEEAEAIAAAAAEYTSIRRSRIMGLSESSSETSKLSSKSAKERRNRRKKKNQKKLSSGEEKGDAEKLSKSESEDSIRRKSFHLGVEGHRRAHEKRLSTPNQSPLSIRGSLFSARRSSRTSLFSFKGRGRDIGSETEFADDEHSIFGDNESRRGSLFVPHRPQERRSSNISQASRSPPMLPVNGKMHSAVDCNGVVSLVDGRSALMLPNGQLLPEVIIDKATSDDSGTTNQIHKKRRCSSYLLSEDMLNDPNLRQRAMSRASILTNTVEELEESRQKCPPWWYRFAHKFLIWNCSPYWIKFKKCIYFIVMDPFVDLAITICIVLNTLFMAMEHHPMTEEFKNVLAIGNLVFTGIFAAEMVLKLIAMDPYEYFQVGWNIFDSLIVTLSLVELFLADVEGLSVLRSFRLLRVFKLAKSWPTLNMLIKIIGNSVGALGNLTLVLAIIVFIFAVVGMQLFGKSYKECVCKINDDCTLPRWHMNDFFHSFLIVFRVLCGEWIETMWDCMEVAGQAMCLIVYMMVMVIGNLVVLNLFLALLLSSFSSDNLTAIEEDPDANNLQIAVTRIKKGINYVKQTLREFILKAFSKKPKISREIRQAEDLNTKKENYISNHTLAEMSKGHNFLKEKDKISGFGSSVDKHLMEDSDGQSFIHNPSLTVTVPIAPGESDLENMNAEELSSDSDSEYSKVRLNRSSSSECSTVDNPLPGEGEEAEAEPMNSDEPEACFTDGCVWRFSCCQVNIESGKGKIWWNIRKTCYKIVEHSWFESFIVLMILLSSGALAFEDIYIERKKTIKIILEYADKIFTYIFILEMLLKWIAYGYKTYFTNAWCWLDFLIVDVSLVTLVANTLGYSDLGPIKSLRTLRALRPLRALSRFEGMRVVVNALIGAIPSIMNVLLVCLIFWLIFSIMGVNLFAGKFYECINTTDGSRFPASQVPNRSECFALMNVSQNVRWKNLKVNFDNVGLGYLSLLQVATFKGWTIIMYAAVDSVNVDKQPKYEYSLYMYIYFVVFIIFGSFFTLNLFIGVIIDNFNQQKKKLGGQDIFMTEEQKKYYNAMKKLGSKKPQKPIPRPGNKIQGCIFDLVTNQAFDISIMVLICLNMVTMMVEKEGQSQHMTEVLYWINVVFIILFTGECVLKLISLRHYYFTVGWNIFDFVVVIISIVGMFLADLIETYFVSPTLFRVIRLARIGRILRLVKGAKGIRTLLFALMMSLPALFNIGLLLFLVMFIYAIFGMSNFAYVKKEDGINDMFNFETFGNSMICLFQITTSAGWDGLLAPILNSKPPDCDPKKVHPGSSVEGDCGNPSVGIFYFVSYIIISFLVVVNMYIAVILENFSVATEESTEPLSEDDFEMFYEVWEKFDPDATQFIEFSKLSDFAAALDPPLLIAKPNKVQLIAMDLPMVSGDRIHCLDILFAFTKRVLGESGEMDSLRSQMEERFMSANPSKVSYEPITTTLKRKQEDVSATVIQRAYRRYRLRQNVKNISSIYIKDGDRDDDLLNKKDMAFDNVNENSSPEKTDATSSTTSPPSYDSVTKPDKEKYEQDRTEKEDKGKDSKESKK
Chain of hNav 1.7 (Q07699 19-218 partner): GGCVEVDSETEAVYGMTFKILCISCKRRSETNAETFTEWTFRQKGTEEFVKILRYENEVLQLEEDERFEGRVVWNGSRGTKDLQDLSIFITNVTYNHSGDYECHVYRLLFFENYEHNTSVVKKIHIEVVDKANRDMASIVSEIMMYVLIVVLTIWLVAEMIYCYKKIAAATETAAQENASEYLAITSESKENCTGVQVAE
Chain of hNav 1.7 (O60939 30-215 partner): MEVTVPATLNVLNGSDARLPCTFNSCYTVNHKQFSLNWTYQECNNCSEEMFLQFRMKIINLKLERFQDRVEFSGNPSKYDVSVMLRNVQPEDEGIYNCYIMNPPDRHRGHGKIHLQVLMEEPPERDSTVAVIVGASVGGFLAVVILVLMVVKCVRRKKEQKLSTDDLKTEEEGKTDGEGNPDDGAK

Compound	IC50 [1]	Ratio of improving pain score (%) [2]
Nc1ncccc1[C@H]1CCCC[C@@H]1Oc1cc(F)c(S(=O)(=O)Nc2ccncn2)cc1F (relative stereo) [Example 69, 4-{[(1S*,2R*)-2-(2-Aminopyridin-3-yl)cyclohexyl]oxy}-2,5-difluoro-N-(pyrimidin-4-yl)benzenesulfonamide]	0.087 µM	B (“B” when the rate was 31 to 60%)
Cn1nccc1[C@H]1CCCCC[C@@H]1Oc1ccc(S(=O)(=O)Nc2ccncn2)c(F)c1F (relative stereo) [Example 51, 2,3-Difluoro-4-{[(1S*,2R*)-2-(1-methyl-1H-pyrazol-5-yl)cycloheptyl]oxy}-N-(pyrimidin-4-yl)benzenesulfonamide]	0.75 µM	B (“B” when the rate was 31 to 60%)
Cc1cc(S(=O)(=O)Nc2ccncn2)ccc1O[C@H]1CCCCC[C@@H]1c1ccnn1C (relative stereo) [Example 57, 3-Methyl-4-{[(1S*,2R*)-2-(1-methyl-1H-pyrazol-5-yl)cycloheptyl]oxy}-N-(pyrimidin-4-yl)benzenesulfonamide]	0.075 µM	B (“B” when the rate was 31 to 60%)
CCn1nccc1[C@H]1CCCC[C@@H]1Oc1ccc(S(=O)(=O)Nc2ccncn2)c(F)c1F (relative stereo) [Example 41, 4-{[(1S*,2R*)-2-(1-Ethyl-1H-pyrazol-5-yl)cyclohexyl]oxy}-2,3-difluoro-N-(pyrimidin-4-yl)benzenesulfonamide]	0.16 µM	B (“B” when the rate was 31 to 60%)
Cc1cc(S(=O)(=O)Nc2ccncn2)ccc1O[C@H]1CCC[C@@H]1c1ccnn1C (relative stereo) [Example 52, 3-Methyl-4-{[(1S*,2R*)-2-(1-methyl-1H-pyrazol-5-yl)cyclopentyl]oxy}-N-(pyrimidin-4-yl)benzenesulfonamide]	0.083 µM	B (“B” when the rate was 31 to 60%)
Cc1c(O[C@H]2CCC[C@@H]2c2ccnn2C)ccc(S(=O)(=O)Nc2ccncn2)c1F (relative stereo) [Example 65, 2-Fluoro-3-methyl-4-{[(1S*,2R*)-2-(1-methyl-1H-pyrazol-5-yl)cyclopentyl]oxy}-N-(pyrimidin-4-yl)benzenesulfonamide]	0.13 µM	B (“B” when the rate was 31 to 60%)
CCn1nccc1[C@H]1CCC[C@@H]1Oc1ccc(S(=O)(=O)Nc2ccncn2)c(F)c1F [Example 119, 4-{[(1S,2R)-2-(1-Ethyl-1H-pyrazol-5-yl)cyclopentyl]oxy}-2,3-difluoro-N-(pyrimidin-4-yl)benzenesulfonamide]	0.1 µM	A (“A” when the rate was 61 to 100%)
Cc1cc(S(=O)(=O)Nc2ccncn2)c(F)cc1O[C@H]1CC(F)(F)C[C@@H]1c1ccnn1C (relative stereo) [Example 133, 4-{[(1S*,2R*)-4,4-Difluoro-2-(1-methyl-1H-pyrazol-5-yl)cyclopentyl]oxy}-2-fluoro-5-methyl-N-(pyrimidin-4-yl)benzenesulfonamide]	0.057 µM	A (“A” when the rate was 61 to 100%)
[2H]c1nccc(NS(=O)(=O)c2ccc(O[C@H]3CCC[C@@H]3c3ccnn3CC)c(F)c2F)n1 (relative stereo) [Example 95, 4-{[(1S*,2R*)-2-(1-Ethyl-1H-pyrazol-5-yl)cyclopentyl]oxy}-2,3-difluoro-N-(2-^2H) (pyrimidin-4-yl)benzenesulfonamide]	0.17 µM	C (“C” when the rate was 0 to 30%)
Cn1nccc1[C@H]1C[C@H](OCc2ccccc2)C[C@@H]1Oc1cc(F)c(S(=O)(=O)Nc2ccncn2)cc1F (relative stereo) [Example 98, 4-{[(1S*,2R*,4S*)-4-(Benzyloxy)-2-(1-methyl-1H-pyrazol-5-yl)cyclopentyl]oxy}-2,5-difluoro-N-(pyrimidin-4-yl)benzenesulfonamide]	0.046 µM	C (“C” when the rate was 0 to 30%)
O=S(=O)(Nc1ccncn1)c1cc(Cl)c(O[C@H]2CCCC[C@@H]2c2ccn[nH]2)cc1F [Example 158, 5-Chloro-2-fluoro-4-{[(1S,2R)-2-(1H-pyrazol-5-yl)cyclohexyl]oxy}-N-(pyrimidin-4-yl)benzenesulfonamide]	0.028 µM	C (“C” when the rate was 0 to 30%)

Further lines, with some results ahead:

IC50 [1]	Compound	Ratio of improving pain score (%) [2]
0.024 µM	Cc1cc(S(=O)(=O)Nc2ccncn2)c(F)cc1O[C@H]1CCC[C@@H]1c1ccn[nH]1 (relative stereo) [Example 138, 2-Fluoro-5-methyl-4-{[(1S*,2R*)-2-(1H-pyrazol-5-yl)cyclopentyl]oxy}-N-(pyrimidin-4-yl)benzenesulfonamide]	B (“B” when the rate was 31 to 60%)
0.036 µM	Cn1nccc1[C@H]1CCC(C)(C)C[C@@H]1Oc1cc(F)c(S(=O)(=O)Nc2ccncn2)cc1F (relative stereo) [Example 72, 4-{[(1S*,2R*)-5,5-Dimethyl-2-(1-methyl-1H-pyrazol-5-yl)cyclohexyl]oxy}-2,5-difluoro-N-(pyrimidin-4-yl)benzenesulfonamide]	C (“C” when the rate was 0 to 30%)
0.059 µM	Cn1nccc1[C@H]1CC(F)(F)CC[C@@H]1Oc1cc(F)c(S(=O)(=O)Nc2ccncn2)cc1Cl (relative stereo) [Example 131, 5-Chloro-4-{[(1S*,2R*)-4,4-difluoro-2-(1-methyl-1H-pyrazol-5-yl)cyclohexyl]oxy}-2-fluoro-N-(pyrimidin-4-yl)benzenesulfonamide]	C (“C” when the rate was 0 to 30%)
0.17 µM	Nc1n[nH]cc1[C@H]1CCCC[C@@H]1Oc1ccc(S(=O)(=O)Nc2ccncn2)c(F)c1Cl (relative stereo) [Example 91, 4-{[(1S*,2R*)-2-(3-Amino-1H-pyrazol-4-yl)cyclohexyl]oxy}-3-chloro-2-fluoro-N-(pyrimidin-4-yl)benzenesulfonamide]	A (“A” when the rate was 61 to 100%)
0.12 µM	Cc1cc(S(=O)(=O)Nc2ccncn2)c(F)cc1O[C@H]1CC(F)(F)CC[C@@H]1c1cn[nH]c1 (relative stereo) [Example 127, 4-{[(1S*,2R*)-5,5-Difluoro-2-(1H-pyrazol-4-yl)cyclohexyl]oxy}-2-fluoro-5-methyl-N-(pyrimidin-4-yl)benzenesulfonamide]	A (“A” when the rate was 61 to 100%)
0.047 µM	CCn1nccc1[C@H]1CCC[C@@H]1Oc1cc(F)c(S(=O)(=O)Nc2ccncn2)c(F)c1 (relative stereo) [Example 50, 4-{[(1S*,2R*)-2-(1-Ethyl-1H-pyrazol-5-yl)cyclopentyl]oxy}-2,6-difluoro-N-(pyrimidin-4-yl)benzenesulfonamide]	B (“B” when the rate was 31 to 60%)
0.017 µM	O=S(=O)(Nc1ccncn1)c1cc(Cl)c(O[C@H]2CC(F)(F)CC[C@@H]2c2cn[nH]c2)cc1F (relative stereo) [Example 152, 5-Chloro-4-{[(1S*,2R*)-5,5-difluoro-2-(1H-pyrazol-4-yl)cyclohexyl]oxy}-2-fluoro-N-(pyrimidin-4-yl)benzenesulfonamide]	B (“B” when the rate was 31 to 60%)
